Data from article PMC9150124, “Design of a Potent, Selective, and Brain-Penetrant Inhibitor of Wnt-Deactivating Enzyme Notum by Optimization of a Crystallographic Fragment Hit” (Journal of Medicinal Chemistry, 2022).

What was measured:
Test in all cases: SelectScreen kinase profiling, SSBK ZLyte SP Technology
Assay type in all cases: biochemical
[1] = target: kinase named in conditions (Homo sapiens, UniProt Q8WTQ7); conditions: GRK7, 10 μM
Method: (§1) Kinase selectivity screening was performed by Thermo Fisher Scientific (Paisley, U.K.) in their SelectScreen Biochemical Kinase Profiling Service. Assay information and data are presented in the Supporting Information.
(§2) Kinase selectivity screening was performed by ThermoFisher Scientific (Paisley, U.K.) in their SelectScreenTM
(§3) Biochemical Kinase Profiling service .

[2] = target: kinase named in conditions (Homo sapiens, UniProt P36888); conditions: FLT3, 10 μM
Method: as §1, §2, §3

[3] = target: kinase named in conditions (Homo sapiens, UniProt Q8N568); conditions: DCAMKL2 (DCK2), 10 μM
Method: as §1, §2, §3

[4] = target: kinase named in conditions (Homo sapiens, UniProt P78368); conditions: CSNK1G2 (CK1 gamma 2), 10 μM
kinase named in conditions (Homo sapiens, UniProt P78368), sequence (P78368 whole entry): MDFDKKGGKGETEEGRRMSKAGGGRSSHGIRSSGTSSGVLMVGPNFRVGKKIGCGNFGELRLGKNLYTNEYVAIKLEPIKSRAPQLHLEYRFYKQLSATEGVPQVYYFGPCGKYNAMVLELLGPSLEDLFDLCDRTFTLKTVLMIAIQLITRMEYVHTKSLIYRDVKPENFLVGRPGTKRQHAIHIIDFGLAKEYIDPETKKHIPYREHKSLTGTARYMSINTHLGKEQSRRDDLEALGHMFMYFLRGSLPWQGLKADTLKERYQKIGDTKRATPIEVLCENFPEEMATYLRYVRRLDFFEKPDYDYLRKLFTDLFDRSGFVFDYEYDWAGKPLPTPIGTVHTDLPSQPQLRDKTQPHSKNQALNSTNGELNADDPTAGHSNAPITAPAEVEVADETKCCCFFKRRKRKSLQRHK
Method: as §1, §2, §3

[5] = target: kinase named in conditions (Homo sapiens, UniProt Q13554); conditions: CAMK2B (CaMKII beta), 10 μM
Method: as §1, §2, §3

[6] = target: kinase named in conditions (Homo sapiens, UniProt P22607, K650E); conditions: FGFR3 K650E, 10 μM
Method: as §1, §2, §3

[7] = target: kinase named in conditions (Homo sapiens, UniProt Q9NYY3); conditions: PLK2, 10 μM
Method: as §1, §2, §3

[8] = target: kinase named in conditions (Homo sapiens, UniProt Q12866); conditions: MERTK (cMER), 10 μM
Method: as §1, §2, §3

[9] = target: kinase named in conditions (Homo sapiens, UniProt P49137); conditions: MAPKAPK2, 10 μM
Method: as §1, §2, §3

[10] = target: kinase named in conditions (Homo sapiens, UniProt P43405); conditions: SYK, 10 μM
Method: as §1, §2, §3

[11] = target: kinase named in conditions (Homo sapiens, UniProt Q5VT25); conditions: CDC42 BPA (MRCKA), 10 μM
Method: as §1, §2, §3

[12] = target: kinase named in conditions (Homo sapiens, UniProt P27448); conditions: MARK3, 10 μM
Method: as §1, §2, §3

[13] = target: kinase named in conditions (Homo sapiens, UniProt Q9UK32); conditions: RPS6KA6 (RSK4), 10 μM
kinase named in conditions (Homo sapiens, UniProt Q9UK32), sequence (Q9UK32 whole entry): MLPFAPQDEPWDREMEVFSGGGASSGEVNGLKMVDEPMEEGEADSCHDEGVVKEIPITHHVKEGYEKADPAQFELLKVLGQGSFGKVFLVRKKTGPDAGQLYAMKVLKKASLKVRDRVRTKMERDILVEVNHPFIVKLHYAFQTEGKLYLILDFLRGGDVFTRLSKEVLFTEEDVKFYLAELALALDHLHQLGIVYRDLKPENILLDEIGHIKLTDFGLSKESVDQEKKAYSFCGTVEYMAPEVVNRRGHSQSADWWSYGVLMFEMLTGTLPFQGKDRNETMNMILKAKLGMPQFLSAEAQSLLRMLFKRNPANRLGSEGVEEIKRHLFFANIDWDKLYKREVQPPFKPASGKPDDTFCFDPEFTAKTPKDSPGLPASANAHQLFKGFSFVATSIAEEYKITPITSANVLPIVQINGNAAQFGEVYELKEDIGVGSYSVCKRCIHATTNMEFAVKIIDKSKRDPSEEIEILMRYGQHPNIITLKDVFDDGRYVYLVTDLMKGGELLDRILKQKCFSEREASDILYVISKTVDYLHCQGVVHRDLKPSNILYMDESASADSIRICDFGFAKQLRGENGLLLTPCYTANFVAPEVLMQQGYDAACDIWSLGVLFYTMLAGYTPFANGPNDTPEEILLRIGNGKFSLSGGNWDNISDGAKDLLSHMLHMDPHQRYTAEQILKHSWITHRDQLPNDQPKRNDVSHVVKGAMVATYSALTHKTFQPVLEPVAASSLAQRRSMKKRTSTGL
Method: as §1, §2, §3

[14] = target: kinase named in conditions (Homo sapiens, UniProt Q56UN5); conditions: MAP3K19 (YSK4), 10 μM
Method: as §1, §2, §3

[15] = target: kinase named in conditions (Homo sapiens, UniProt Q13237); conditions: PRKG2 (PKG2), 10 μM
kinase named in conditions (Homo sapiens, UniProt Q13237), sequence (Q13237 whole entry): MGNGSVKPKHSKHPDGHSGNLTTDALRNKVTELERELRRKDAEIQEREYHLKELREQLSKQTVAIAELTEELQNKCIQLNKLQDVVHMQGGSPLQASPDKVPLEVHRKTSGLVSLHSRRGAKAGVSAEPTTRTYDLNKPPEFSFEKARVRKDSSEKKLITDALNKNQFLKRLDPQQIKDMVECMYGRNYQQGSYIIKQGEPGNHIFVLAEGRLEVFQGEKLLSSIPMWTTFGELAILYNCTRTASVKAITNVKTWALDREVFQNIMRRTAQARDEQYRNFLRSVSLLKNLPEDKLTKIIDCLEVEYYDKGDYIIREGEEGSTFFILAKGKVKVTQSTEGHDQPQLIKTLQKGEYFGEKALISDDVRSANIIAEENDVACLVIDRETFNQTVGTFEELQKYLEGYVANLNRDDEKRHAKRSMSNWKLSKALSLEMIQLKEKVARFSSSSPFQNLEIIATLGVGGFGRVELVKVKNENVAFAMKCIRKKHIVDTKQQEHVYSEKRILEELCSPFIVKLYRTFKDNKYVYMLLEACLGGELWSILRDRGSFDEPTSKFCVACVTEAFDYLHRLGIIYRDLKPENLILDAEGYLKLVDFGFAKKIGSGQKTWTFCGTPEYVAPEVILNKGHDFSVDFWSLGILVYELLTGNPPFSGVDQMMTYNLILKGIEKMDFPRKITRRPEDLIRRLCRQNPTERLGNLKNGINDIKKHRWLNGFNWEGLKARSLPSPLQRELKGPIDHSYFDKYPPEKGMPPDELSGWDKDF
Method: as §1, §2, §3

[16] = target: kinase named in conditions (Homo sapiens, UniProt Q05513); conditions: PRKCZ (PKC zeta), 10 μM
Method: as §1, §2, §3

[17] = target: kinase named in conditions (Homo sapiens, UniProt Q6DT37); conditions: CDC42 BPG (MRCKG), 10 μM
Method: as §1, §2, §3

[18] = target: kinase named in conditions (Homo sapiens, UniProt O60674)
kinase named in conditions (Homo sapiens, UniProt O60674), sequence (O60674 whole entry): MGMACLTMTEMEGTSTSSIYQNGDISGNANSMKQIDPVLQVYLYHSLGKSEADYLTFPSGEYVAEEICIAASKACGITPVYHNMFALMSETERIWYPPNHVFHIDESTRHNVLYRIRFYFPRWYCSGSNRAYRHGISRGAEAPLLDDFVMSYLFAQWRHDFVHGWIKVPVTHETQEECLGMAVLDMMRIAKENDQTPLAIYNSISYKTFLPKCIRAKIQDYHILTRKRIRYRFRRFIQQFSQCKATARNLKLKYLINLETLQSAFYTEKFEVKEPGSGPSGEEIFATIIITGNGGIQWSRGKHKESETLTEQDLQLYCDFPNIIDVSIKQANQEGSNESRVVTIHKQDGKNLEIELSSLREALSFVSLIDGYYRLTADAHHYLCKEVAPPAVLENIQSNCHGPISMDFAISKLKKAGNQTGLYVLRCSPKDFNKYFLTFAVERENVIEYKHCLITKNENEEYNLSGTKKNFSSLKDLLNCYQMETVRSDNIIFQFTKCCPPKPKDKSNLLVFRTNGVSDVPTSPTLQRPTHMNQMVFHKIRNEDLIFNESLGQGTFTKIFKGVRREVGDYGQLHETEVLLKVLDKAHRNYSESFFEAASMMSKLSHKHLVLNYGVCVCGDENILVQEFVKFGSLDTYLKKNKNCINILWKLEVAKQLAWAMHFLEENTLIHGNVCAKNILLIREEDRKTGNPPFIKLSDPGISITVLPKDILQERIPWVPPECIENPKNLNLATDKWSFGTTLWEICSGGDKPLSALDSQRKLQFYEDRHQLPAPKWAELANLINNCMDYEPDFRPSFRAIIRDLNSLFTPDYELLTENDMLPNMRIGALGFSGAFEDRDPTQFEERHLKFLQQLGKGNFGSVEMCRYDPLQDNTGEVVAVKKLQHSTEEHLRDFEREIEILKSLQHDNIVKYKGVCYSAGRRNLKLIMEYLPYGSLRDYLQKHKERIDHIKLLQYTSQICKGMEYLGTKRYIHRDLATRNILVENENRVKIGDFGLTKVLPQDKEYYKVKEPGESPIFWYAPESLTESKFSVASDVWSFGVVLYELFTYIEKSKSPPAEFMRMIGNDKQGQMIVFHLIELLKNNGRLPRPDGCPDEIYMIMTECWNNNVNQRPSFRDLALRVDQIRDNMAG
Method: as §1, §2, §3

[19] = target: kinase named in conditions (Homo sapiens, UniProt Q9P0L2); conditions: MARK1 (MARK), 10 μM
Method: as §1, §2, §3

[20] = target: kinase named in conditions (Homo sapiens, UniProt P06213); conditions: INSR, 10 μM
Method: as §1, §2, §3

[21] = target: kinase named in conditions (Homo sapiens, UniProt O00141); conditions: SGK (SGK1), 10 μM
kinase named in conditions (Homo sapiens, UniProt O00141), sequence (O00141 whole entry): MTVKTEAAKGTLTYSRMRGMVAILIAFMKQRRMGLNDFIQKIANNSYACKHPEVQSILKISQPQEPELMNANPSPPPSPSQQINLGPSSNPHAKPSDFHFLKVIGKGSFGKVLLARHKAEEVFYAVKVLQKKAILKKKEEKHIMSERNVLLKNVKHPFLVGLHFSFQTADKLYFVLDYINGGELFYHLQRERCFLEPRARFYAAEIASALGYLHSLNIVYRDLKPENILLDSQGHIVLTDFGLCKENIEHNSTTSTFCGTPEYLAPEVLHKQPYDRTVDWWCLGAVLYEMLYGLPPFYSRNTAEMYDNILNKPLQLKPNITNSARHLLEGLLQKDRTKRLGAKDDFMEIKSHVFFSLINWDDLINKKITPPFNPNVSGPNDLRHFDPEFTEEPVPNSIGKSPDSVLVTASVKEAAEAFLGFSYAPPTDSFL
Method: as §1, §2, §3

[22] = target: kinase named in conditions (Homo sapiens, UniProt O43781); conditions: DYRK3, 10 μM
kinase named in conditions (Homo sapiens, UniProt O43781), sequence (O43781 whole entry): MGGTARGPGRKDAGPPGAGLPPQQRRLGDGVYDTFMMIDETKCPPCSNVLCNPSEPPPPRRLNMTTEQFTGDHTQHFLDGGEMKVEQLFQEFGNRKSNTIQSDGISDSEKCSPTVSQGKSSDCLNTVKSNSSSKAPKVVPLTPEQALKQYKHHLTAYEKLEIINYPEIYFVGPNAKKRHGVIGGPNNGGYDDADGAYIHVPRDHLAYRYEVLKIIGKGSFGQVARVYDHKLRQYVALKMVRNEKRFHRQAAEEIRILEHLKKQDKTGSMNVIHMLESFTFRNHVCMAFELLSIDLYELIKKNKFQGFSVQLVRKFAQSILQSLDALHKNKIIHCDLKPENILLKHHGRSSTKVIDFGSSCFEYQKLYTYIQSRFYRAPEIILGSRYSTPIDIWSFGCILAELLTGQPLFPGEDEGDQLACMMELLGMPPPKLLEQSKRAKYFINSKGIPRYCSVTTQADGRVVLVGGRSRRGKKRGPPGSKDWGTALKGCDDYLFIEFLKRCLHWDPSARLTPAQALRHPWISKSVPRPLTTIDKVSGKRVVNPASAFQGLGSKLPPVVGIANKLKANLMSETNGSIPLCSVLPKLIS
Method: as §1, §2, §3

[23] = target: kinase named in conditions (Homo sapiens, UniProt P07949, V804L); conditions: RET V804L, 10 μM
Method: as §1, §2, §3

[24] = target: kinase named in conditions (Homo sapiens, UniProt P24723); conditions: PRKCH (PKC eta), 10 μM
Method: as §1, §2, §3

[25] = target: kinase named in conditions (Homo sapiens, UniProt Q8IW41); conditions: MAPKAPK5 (PRAK), 10 μM
Method: as §1, §2, §3

[26] = target: kinase named in conditions (Homo sapiens, UniProt Q9UL54); conditions: TAOK2 (TAO1), 10 μM
Method: as §1, §2, §3

[27] = target: kinase named in conditions (Homo sapiens, UniProt P28482); conditions: MAPK1 (ERK2), 10 μM
kinase named in conditions (Homo sapiens, UniProt P28482), sequence (P28482 whole entry): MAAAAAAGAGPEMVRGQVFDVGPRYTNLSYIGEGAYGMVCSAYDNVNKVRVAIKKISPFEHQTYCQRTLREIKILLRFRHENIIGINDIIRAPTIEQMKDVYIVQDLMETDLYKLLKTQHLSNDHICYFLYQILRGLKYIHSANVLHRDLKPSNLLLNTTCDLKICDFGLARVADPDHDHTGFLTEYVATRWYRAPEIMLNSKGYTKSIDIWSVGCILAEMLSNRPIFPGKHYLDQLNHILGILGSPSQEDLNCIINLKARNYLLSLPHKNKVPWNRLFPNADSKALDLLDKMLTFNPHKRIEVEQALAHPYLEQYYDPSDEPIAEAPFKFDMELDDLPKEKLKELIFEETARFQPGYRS
Method: as §1, §2, §3

[28] = target: kinase named in conditions (Homo sapiens, UniProt P19784); conditions: CSNK2A2 (CK2 alpha 2), 10 μM
Method: as §1, §2, §3

[29] = target: kinase named in conditions (Homo sapiens, UniProt P07333); conditions: CSF1R (FMS), 10 μM
Method: as §1, §2, §3

[30] = target: kinase named in conditions (Homo sapiens, UniProt P49840); conditions: GSK3A (GSK3 alpha), 10 μM
Method: as §1, §2, §3

[31] = target: kinase named in conditions (Homo sapiens, UniProt Q16566); conditions: CAMK4 (CaMKIV), 10 μM
Method: as §1, §2, §3

[32] = target: kinase named in conditions (Homo sapiens, UniProt P06239); conditions: LCK, 10 μM
Method: as §1, §2, §3

[33] = target: kinase named in conditions (Homo sapiens, UniProt Q00535)
kinase named in conditions (Homo sapiens, UniProt Q00535), sequence (Q00535 whole entry): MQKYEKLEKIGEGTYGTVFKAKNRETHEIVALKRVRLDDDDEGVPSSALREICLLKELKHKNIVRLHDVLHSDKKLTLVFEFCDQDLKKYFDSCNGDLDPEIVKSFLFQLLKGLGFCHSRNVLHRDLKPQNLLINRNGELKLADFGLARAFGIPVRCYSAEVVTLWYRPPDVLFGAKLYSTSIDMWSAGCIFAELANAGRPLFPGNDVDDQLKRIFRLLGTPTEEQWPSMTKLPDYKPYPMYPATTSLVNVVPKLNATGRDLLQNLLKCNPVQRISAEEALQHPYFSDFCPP
Method: as §1, §2, §3

[34] = target: kinase named in conditions (Homo sapiens, UniProt P00533, G719S); conditions: EGFR (ErbB1) G719S, 10 μM
Method: as §1, §2, §3

## FC(F)(F)c1c(Cl)ccc(-n2ccnn2)c1Cl [8l, 1-(2,4-Dichloro-3-(trifluoromethyl)phenyl)-1H-1,2,3-triazole]
[1]
  inhibition at 10 µM: 0%
[2]
  inhibition at 10 µM: 15%
[3]
  inhibition at 10 µM: 1%
[4]
  inhibition at 10 µM: -2%
[5]
  inhibition at 10 µM: 4%
[6]
  inhibition at 10 µM: -5%
[7]
  inhibition at 10 µM: 15%
[8]
  inhibition at 10 µM: 5%
[9]
  inhibition at 10 µM: 1%
[10]
  inhibition at 10 µM: 6%
[11]
  inhibition at 10 µM: -3%
[12]
  inhibition at 10 µM: 3%
[13]
  inhibition at 10 µM: 0%
[14]
  inhibition at 10 µM: -5%
[15]
  inhibition at 10 µM: 8%
[16]
  inhibition at 10 µM: 23%
[17]
  inhibition at 10 µM: 2%
[18]; JAK2, 10 μM
  inhibition at 10 µM: 3%
[18]; JAK2 JH1 JH2, 10 μM
  inhibition at 10 µM: -1%
[19]
  inhibition at 10 µM: -1%
[20]
  inhibition at 10 µM: 6%
[21]
  inhibition at 10 µM: 5%
[22]
  inhibition at 10 µM: 1%
[23]
  inhibition at 10 µM: 8%
[24]
  inhibition at 10 µM: -1%
[25]
  inhibition at 10 µM: 6%
[26]
  inhibition at 10 µM: -8%
[27]
  inhibition at 10 µM: -2%
[28]
  inhibition at 10 µM: 17%
[29]
  inhibition at 10 µM: 6%
[30]
  inhibition at 10 µM: 7%
[31]
  inhibition at 10 µM: 15%
[32]
  inhibition at 10 µM: 33%
[33]; CDK5/p25, 10 μM
  inhibition at 10 µM: 1%
[33]; CDK5/p35, 10 μM
  inhibition at 10 µM: 7%
[34]
  inhibition at 10 µM: -1%
